In ChEMBL document CHEMBL3994618, “The long story of camptothecin: From traditional medicine to drugs” (Bioorg Med Chem Lett, 2017):

Test: Drug excretion in human urine upto 24 hrs
Format: ADME
Conditions: read-out: Drug excretion

dose excreted at 24 h: 40%
SMILES: CC[C@@]1(O)C(=O)OCc2c1cc1n(c2=O)Cc2cc3c(CN(C)C)c(O)ccc3nc2-1 [TOPOTECAN]
